Data published in patent US20240269139A1, “COMPOUNDS FOR TARGETED PROTEIN DEGRADATION OF KINASES” (DANA-FARBER CANCER INSTITUTE, INC., priority 2020, published 2024).
Where two headings read alike, the source gives them in different places.

Assays:
Type in all cases: cell-based
[1] = tested on: protein kinases (human kinome); details: for logFC GSK3B: experiment wp017
[2] = molecular target: protein kinases (human kinome) (Homo sapiens, UniProt P51451)
[3] = molecular target: T1, protein kinases (human kinome) (Homo sapiens, UniProt O95835); details: LATS1 O95835; experiment wp071
T1 sequence (O95835 1-1130): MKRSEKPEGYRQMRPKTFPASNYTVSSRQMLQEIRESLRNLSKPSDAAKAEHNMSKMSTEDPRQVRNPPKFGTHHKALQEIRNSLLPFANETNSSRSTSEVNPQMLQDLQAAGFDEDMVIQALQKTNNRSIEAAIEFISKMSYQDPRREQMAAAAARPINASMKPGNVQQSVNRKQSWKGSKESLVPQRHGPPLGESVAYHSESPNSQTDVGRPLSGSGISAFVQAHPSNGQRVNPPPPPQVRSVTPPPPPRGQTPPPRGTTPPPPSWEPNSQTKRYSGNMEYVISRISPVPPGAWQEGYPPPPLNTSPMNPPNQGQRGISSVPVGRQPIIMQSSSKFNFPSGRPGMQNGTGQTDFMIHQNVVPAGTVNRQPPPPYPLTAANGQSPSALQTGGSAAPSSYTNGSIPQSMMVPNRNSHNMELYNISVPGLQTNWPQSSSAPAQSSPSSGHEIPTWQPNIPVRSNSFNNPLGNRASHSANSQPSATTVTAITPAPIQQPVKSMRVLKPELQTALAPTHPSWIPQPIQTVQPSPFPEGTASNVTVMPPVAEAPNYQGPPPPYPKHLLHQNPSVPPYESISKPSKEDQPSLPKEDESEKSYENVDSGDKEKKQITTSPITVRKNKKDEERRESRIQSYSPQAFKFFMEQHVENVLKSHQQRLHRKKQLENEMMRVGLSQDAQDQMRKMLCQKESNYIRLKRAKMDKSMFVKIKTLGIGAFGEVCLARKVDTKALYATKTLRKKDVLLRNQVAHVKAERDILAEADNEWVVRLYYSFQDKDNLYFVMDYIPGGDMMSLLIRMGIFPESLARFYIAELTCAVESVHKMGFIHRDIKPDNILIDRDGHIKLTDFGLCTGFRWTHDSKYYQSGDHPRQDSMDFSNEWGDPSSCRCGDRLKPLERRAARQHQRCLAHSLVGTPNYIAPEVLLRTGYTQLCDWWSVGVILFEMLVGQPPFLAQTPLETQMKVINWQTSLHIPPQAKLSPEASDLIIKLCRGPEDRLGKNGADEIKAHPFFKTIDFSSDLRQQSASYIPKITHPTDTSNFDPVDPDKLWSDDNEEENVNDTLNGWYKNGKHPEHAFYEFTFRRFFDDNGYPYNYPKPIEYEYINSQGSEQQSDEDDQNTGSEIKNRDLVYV

[4] = molecular target: protein kinases (human kinome) (Homo sapiens, UniProt P42684)
Sequence of protein kinases (human kinome) (Homo sapiens, UniProt P42684) (P42684 whole entry): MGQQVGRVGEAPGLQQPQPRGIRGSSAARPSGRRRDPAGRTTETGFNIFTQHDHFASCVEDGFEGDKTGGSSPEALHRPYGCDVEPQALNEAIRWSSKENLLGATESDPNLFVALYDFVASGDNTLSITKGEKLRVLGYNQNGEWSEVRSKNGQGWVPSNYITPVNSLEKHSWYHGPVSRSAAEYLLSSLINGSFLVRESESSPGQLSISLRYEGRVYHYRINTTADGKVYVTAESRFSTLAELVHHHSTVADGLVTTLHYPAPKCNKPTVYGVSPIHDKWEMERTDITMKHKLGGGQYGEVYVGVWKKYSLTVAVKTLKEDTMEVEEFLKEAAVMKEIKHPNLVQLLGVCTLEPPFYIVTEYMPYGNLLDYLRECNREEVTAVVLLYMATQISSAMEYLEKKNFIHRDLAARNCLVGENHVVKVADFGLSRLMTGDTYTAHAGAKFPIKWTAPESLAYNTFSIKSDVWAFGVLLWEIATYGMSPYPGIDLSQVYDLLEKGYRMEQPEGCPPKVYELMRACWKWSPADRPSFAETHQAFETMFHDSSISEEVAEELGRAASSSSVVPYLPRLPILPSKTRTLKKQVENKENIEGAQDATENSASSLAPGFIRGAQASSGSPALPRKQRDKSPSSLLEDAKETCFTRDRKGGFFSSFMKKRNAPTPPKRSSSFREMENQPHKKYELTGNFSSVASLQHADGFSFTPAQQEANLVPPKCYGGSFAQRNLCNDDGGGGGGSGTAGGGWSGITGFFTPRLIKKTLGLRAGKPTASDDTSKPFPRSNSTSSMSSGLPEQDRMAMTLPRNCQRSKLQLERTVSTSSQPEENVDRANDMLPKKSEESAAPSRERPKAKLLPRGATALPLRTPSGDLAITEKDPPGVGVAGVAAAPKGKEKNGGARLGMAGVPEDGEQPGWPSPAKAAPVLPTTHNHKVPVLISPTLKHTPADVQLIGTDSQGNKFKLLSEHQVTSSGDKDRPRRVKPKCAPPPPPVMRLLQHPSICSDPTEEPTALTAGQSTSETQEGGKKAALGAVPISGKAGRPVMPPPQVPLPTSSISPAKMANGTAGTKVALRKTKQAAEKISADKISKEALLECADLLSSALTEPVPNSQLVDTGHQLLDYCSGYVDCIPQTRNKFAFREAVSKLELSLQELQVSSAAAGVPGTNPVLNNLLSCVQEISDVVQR

[5] = molecular target: protein kinases (human kinome) (Homo sapiens, UniProt P41240); details: experiment wp071
Sequence of protein kinases (human kinome) (Homo sapiens, UniProt P41240) (P41240 whole entry): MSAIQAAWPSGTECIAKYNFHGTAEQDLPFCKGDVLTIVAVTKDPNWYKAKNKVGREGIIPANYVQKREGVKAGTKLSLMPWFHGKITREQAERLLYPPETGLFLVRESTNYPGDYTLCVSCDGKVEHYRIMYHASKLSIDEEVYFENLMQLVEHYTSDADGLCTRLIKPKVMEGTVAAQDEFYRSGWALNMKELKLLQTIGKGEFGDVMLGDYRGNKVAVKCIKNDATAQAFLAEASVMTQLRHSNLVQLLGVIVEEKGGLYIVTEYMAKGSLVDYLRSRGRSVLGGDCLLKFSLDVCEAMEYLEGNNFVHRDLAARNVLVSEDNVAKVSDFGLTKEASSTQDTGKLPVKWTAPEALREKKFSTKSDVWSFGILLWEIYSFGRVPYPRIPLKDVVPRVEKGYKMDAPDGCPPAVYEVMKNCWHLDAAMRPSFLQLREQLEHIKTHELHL

[6] = molecular target: protein kinases (human kinome) (Homo sapiens, UniProt P49674); details: CSNK1E P49674; experiment wp071
Sequence of protein kinases (human kinome) (Homo sapiens, UniProt P49674) (P49674 whole entry): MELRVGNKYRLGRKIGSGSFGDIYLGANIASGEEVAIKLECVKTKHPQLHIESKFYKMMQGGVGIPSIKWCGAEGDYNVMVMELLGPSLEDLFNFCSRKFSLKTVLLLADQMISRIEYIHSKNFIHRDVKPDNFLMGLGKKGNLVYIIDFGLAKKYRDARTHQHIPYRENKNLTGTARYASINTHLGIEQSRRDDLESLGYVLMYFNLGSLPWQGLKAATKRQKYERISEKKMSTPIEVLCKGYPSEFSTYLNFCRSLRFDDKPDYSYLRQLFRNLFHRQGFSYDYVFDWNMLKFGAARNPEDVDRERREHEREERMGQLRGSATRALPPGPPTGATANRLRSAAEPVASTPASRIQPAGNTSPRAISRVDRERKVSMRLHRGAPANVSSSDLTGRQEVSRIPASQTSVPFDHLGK

[7] = molecular target: T2, protein kinases (human kinome) (Homo sapiens, UniProt Q13163); details: experiment wp071
T2 sequence (Q13163 1-448): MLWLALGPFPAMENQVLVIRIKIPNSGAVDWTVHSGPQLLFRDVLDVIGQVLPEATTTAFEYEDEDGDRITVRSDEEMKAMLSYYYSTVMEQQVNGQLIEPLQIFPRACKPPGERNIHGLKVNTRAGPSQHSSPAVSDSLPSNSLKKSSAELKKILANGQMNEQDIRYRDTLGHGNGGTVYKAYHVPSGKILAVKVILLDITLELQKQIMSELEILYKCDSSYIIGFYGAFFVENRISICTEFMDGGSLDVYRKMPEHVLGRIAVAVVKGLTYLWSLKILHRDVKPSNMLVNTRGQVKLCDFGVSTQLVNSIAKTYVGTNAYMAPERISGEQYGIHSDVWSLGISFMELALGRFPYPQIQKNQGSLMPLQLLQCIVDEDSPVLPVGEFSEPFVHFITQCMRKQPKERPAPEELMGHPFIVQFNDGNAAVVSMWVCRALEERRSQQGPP

[8] = molecular target: protein kinases (human kinome) (Homo sapiens, UniProt P53667); details: LIMK1 (P53667-1), experiment wp071
Sequence of protein kinases (human kinome) (Homo sapiens, UniProt P53667) (P53667 whole entry): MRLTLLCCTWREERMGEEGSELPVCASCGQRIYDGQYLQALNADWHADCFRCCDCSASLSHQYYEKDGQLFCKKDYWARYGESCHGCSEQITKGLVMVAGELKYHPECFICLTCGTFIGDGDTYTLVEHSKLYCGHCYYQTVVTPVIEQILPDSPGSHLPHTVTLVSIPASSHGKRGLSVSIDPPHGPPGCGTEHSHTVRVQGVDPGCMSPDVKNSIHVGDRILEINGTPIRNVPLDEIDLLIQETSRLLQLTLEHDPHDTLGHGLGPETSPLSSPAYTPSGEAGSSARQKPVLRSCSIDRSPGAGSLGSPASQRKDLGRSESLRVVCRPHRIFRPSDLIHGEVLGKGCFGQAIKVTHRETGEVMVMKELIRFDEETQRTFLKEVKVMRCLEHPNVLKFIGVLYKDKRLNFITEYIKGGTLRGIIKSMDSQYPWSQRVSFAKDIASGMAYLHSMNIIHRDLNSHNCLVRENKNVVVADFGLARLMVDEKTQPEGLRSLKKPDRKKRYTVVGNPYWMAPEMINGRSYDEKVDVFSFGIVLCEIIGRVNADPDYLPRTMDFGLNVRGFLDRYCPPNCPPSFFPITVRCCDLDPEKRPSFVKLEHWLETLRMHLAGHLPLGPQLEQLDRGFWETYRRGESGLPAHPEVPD

[9] = molecular target: protein kinases (human kinome) (Homo sapiens, UniProt P48730)
Sequence of protein kinases (human kinome) (Homo sapiens, UniProt P48730) (P48730 whole entry): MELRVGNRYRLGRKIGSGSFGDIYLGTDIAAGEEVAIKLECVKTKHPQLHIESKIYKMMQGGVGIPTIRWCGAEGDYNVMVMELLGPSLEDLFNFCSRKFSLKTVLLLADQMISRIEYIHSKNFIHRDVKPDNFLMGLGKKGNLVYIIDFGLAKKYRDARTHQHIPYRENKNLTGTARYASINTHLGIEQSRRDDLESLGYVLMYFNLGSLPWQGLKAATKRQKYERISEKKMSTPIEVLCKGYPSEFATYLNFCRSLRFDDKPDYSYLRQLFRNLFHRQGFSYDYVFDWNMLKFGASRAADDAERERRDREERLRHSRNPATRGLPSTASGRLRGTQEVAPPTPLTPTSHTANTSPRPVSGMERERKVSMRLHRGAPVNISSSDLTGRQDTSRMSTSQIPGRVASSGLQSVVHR

[10] = molecular target: T3, protein kinases (human kinome) (Homo sapiens, UniProt O94768)
T3 sequence (O94768 1-372): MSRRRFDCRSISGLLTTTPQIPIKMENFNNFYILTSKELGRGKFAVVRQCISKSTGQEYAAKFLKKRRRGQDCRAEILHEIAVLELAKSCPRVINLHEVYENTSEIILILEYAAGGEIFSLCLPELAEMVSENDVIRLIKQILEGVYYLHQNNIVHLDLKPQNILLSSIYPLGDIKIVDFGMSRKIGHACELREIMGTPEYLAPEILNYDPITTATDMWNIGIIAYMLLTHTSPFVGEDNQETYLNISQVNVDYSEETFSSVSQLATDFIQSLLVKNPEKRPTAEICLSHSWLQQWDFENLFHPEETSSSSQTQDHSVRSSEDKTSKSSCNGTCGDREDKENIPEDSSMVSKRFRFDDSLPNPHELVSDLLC

[11] = molecular target: protein kinases (human kinome) (Homo sapiens, UniProt Q9P1W9)
Sequence of protein kinases (human kinome) (Homo sapiens, UniProt Q9P1W9) (Q9P1W9 whole entry): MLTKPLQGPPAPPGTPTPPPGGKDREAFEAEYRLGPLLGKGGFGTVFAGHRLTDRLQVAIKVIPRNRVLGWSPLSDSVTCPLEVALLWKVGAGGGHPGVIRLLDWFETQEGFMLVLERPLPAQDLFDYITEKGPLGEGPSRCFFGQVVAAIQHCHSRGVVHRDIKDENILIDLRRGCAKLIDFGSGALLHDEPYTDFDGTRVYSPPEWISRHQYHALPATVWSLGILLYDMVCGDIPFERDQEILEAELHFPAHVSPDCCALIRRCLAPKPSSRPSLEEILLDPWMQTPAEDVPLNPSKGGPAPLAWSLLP

[12] = molecular target: T4, protein kinases (human kinome) (Homo sapiens, UniProt Q8TBX8); details: PIP4K2C Q8TBX8-1; experiment wp017
T4 sequence (Q8TBX8 1-421): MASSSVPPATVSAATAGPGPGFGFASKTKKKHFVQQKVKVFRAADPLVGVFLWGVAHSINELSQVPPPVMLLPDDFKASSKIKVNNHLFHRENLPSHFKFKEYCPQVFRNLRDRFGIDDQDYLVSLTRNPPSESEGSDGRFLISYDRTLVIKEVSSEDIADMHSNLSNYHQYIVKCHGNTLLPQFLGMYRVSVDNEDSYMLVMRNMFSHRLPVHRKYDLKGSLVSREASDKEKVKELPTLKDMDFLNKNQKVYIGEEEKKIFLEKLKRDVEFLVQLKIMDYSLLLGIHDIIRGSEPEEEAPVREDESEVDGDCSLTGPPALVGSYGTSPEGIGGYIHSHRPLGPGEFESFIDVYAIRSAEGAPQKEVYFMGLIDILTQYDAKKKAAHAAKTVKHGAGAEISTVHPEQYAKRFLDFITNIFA

[13] = molecular target: protein kinases (human kinome) (Homo sapiens, UniProt O94921)
Sequence of protein kinases (human kinome) (Homo sapiens, UniProt O94921) (O94921 whole entry): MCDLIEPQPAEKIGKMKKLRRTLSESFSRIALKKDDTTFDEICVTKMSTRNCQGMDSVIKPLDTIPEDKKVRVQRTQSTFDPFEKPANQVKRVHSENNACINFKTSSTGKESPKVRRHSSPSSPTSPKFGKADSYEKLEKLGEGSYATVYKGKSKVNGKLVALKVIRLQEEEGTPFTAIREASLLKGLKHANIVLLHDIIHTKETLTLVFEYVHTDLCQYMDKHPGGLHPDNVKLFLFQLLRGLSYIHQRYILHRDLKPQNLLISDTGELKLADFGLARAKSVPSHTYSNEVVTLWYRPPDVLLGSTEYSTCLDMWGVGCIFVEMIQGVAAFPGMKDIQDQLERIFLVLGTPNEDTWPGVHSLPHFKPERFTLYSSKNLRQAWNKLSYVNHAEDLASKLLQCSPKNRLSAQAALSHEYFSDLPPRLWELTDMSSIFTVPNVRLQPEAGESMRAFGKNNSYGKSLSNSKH

[14] = molecular target: protein kinases (human kinome) (Homo sapiens, UniProt P49840); details: GSK3A P49840; experiment wp017
Sequence of protein kinases (human kinome) (Homo sapiens, UniProt P49840) (P49840 whole entry): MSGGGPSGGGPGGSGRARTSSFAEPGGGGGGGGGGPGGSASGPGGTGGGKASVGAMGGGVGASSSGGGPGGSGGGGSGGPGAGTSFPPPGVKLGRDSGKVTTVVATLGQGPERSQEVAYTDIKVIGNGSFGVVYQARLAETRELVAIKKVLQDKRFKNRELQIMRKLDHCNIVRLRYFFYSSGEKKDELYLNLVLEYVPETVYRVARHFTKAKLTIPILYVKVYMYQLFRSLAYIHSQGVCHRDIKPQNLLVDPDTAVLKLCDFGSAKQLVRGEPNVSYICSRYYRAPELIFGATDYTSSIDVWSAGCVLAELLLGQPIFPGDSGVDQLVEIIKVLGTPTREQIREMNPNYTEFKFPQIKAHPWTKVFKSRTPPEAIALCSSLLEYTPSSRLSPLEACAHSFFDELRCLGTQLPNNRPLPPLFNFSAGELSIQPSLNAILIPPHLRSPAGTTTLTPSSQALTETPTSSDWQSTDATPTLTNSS

[15] = molecular target: T5, protein kinases (human kinome) (Homo sapiens, UniProt Q13043)
T5 sequence (Q13043 1-487): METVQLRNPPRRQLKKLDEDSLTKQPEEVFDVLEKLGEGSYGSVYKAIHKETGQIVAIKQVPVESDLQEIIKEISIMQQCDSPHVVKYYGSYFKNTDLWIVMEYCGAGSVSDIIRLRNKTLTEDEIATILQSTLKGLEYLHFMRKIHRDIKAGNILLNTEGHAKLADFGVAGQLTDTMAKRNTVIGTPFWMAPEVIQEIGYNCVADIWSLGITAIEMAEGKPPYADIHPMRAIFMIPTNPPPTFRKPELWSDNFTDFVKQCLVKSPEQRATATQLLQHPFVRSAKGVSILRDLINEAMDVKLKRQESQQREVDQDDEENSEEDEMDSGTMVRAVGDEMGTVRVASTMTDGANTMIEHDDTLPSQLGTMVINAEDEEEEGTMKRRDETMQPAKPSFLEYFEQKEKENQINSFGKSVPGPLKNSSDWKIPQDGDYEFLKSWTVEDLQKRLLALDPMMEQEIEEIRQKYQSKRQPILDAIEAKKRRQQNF

[16] = molecular target: T6, protein kinases (human kinome) (Homo sapiens, UniProt O60285); details: NUAK1 (O60285), experiment wp017
T6 sequence (O60285 1-661): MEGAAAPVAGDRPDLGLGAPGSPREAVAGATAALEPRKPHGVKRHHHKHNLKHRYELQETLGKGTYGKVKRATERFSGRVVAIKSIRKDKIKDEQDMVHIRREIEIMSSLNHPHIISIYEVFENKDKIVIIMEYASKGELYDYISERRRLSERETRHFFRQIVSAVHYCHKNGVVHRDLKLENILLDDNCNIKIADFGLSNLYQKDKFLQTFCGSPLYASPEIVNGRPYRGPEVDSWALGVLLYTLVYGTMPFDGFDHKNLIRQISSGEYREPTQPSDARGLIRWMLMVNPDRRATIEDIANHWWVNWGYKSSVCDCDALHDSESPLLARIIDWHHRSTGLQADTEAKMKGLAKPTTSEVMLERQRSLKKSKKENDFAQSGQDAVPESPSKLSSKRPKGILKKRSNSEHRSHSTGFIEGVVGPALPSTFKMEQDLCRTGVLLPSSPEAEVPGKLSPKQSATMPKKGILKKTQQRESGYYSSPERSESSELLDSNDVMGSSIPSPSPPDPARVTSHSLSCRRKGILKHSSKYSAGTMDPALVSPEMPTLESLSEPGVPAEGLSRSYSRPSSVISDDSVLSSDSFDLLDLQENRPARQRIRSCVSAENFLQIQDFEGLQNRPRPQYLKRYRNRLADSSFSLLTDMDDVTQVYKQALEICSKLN

Sequence of protein kinases (human kinome) (Homo sapiens, UniProt P51451) (P51451 whole entry): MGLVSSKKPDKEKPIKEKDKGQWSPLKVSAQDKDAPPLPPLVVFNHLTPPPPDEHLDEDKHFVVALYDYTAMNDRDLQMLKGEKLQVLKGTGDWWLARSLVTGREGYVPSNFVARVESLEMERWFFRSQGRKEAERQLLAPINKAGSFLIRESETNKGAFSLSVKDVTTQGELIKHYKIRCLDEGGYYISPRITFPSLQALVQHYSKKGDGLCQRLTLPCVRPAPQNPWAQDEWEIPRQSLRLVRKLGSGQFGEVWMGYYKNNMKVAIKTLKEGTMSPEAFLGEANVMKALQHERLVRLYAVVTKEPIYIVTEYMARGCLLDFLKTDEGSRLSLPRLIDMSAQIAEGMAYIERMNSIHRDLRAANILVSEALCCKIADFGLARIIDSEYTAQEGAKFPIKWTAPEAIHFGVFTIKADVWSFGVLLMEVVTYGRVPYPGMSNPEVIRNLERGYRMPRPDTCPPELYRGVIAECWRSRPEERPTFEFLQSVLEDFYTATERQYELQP

## Nc1ncnc2c1c(-c1ccc(Oc3ccccc3)cc1)nn2[C@H]1CC[C@H](N2CCN(CCCCCCNC(=O)COc3cccc4c3C(=O)N(C3CCC(=O)NC3=O)C4=O)CC2)CC1 (stereo partly drawn) [SB1.G.200]
[1]; ABL1 (P00519-2), experiment wp071
  logFC ABL1: −1.646
[1]; Accession P06241-2, experiment wp071
  logFC FYN: −1.777
[1]; Accession P12931-2, experiment wp071
  logFC of SRC: −2.174
[1]; FYN P06241-2, experiment wp071
  logFC FYN: −1.777
[1]; LCK, accession P06239-3, experiment wp071, direction of change down
  logFC LCK: −1.275
[1]; SRC (P12931-2) protein abundance, degrader vs DMSO, down
  logFC: −2.174
[1]; experiment wp071
  logFC ABL1 (P00519-2): −1.646
[1]; experiment wp071, direction of change down
  logFC LCK (P06239-3): −1.275
[2]; BLK (P51451), direction down, experiment wp071
  logFC BLK: −1.525
[2]; Experiment wp071, down
  logFC of BLK (P51451): −1.525
[3]
  logFC: −1.403
  logFC LATS1: −1.403
[4]; ABL2 (P42684) protein abundance, degrader vs DMSO, down
  logFC: −2.103
[4]; experiment wp071
  logFC ABL2 (P42684): −2.103
[5]; Accession P41240
  logFC of CSK: −3.011
[5]; CSK (P41240), down
  logFC CSK: −3.011
[6]
  logFC: −0.76
  logFC CSNK1E: −0.76
[7]; MAP2K5 (Q13163-1)
  logFC: −1.433
[7]
  logFC of MAP2K5 (Q13163-1): −1.433
[8]; direction down
  logFC LIMK1: −0.775
[8]; down
  logFC LIMK1: −0.775

## Nc1ncc(-c2ccc(S(=O)(=O)N(CCCNC(=O)CCOCCOCCOCCOCCOCCNc3cccc4c3C(=O)N(C3CCC(=O)NC3=O)C4=O)C3CC3)cc2F)cc1-c1ccc2c(c1)CCNC2=O (stereo not drawn) [WH.9533.153]
[9]; Accession P48730-1, experiment wp017, direction down
  logFC CSNK1D: −0.7788
[9]; Experiment wp017
  logFC of CSNK1D (P48730-1): −0.7788
[10]; Experiment wp017, direction down
  logFC STK17B (O94768): −0.7595
[10]; STK17B (O94768), experiment wp017
  logFC: −0.7595
[11]; Experiment wp017
  logFC of PIM2 (Q9P1W9): −0.4936
[11]; PIM2 (Q9P1W9), experiment wp017
  logFC: −0.4936
[12]
  logFC: −0.7144
[1]; Accession P49841-2, direction down
  logFC GSK3B: −1.317
[1]; GSK3B P49841-2
  logFC GSK3B: −1.317
[13]; CDK14 (O94921-1), experiment wp017
  logFC: −0.4637
[13]; Experiment wp017
  logFC of CDK14 (O94921-1): −0.4637
[14]
  logFC: −0.4833
  logFC GSK3A: −0.4833
[15]; Experiment wp017
  logFC of STK4 (Q13043-1): −0.4936
[15]; STK4 (Q13043-1), experiment wp017
  logFC: −0.4936
[16]
  logFC: −1.367
[16]; direction down
  logFC: −1.367
